Measured values published in patent US12558393B2, “Compositions and methods of BDNF activation” (VDF Futureceuticals, Inc., priority 2013, dated 2026).

Tested on: BDNF plasma levels
Test: Plasma BDNF by ELISA in healthy fasted subjects after a single oral dose
Format: in vivo, human
Conditions: 50 mg single dose, five healthy subjects (FIG. 2)

## O=C(/C=C/c1ccc(O)c(O)c1)O[C@@H]1C[C@](O)(C(=O)O)C[C@@H](O)[C@H]1O [chlorogenic acid]
  blood level of BDNF, increase: did not increase blood level of BDNF in a statistically significant manner
